Reference: patent publication US12139458B2, “(2,5-dioxopyrrolidin-1-yl)(phenyl)-acetamide derivatives and their use in the treatment of neurological diseases” (UNIWERSYTET JAGIELLONSKI, priority 2019, dated 2024)

Legend:
Assay type in all cases: in vivo
[1] = tested on: male Swiss albino mice (CD-1); test: Maximal electroshock seizure test (MES); settings: 0.5 h, mice
Summary of the method: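 Male CD-1 mice (18–26 g) received compound i.p. in 1% aqueous Tween 30 min before a 0.2 s, 500 V, 25 mA auricular electroshock.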

[2] = tested on: male Swiss albino mice (CD-1); test: Rotarod test (motor coordination); settings: i.p., 0.5 h
Procedure: (§1) All procedures were carried out in accordance with applicable Polish and international guidelines on the ethics of animal testing, after obtaining appropriate institutional approval. The substances were administered intraperitoneally (i.p.), in 1% aqueous solution of Tween, as single injections with a volume of 10 ml/kg, 30 minutes before the given test. Screening was performed on groups consisted of 4 mice. […] All tests were carried out based on the procedures described in the specialist literature.
Mice were trained the day before the actual experiment. They were placed individually on a 2 cm diameter rod rotating at 10 revolutions per minute (rpm). During each training session, the animals remained on the rod for 3 minutes. The experiment was carried out 30 minutes after administration of the compounds. Motor coordination was tested at the speed of the rotating bar: 10 rpm during 60 seconds. Motor impairments were defined as the inability to remain on the rotating rod for 1 min.
(§2) To perform a statistical evaluation of the results, one-way ANOVA variance analysis and Dunnett's post hoc test (multiple comparison test) were used. The value at the significance level p<0.05 was considered statistically significant.

[3] = tested on: male Swiss albino mice (CD-1); test: Psychomotor seizure test 6 Hz (32 mA); settings: 0.5 h, mice; for ED50 6 Hz (32 mA): i.p.
Summary of the method: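 Compounds given i.p. in 1% aqueous Tween 30 min before a 3 s ocular stimulus (32 mA and/or 44 mA, 6 pulses/s) after lidocaine; mice normal within 10 s counted protected. ED50 from 3-4 groups of 6 mice; screening on groups of 4.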

[4] = tested on: male Swiss albino mice (CD-1); test: Psychomotor seizure test 6 Hz (44 mA); settings: 0.5 h, mice
Procedure: as §1
In the 6 Hz test, seizures were induced by an electric stimulus of 32 mA and/or 44 mA and a frequency of 6 pulses per second. […] Before starting the test, the eye surface was gently moistened with a solution of local anesthetic (1% lidocaine solution). The study was conducted 30 minutes after intraperitoneal administration of the compounds at various doses. An electrical pulse was delivered continuously for a period of 3 seconds, followed by observation of the animal for a period of 10 seconds. During this time, immobility or stun associated with rearing, forelimb clonus, twitching of the vibrissae and Straub's tail were observed. These symptoms persist throughout the observation period, indicating the occurrence of psychomotor seizures in mice.
as §2

[5] = tested on: male Swiss albino mice (CD-1); test: Subcutaneous pentylenetetrazole seizure test (scPTZ); settings: 0.5 h, mice
Summary of the method: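 Compounds given i.p. in 1% aqueous Tween 30 min before s.c. PTZ at 100 mg/kg. Mice observed 30 min for clonic seizures (whole-body clonus ≥3 s with loss of righting reflex); absence counted as protection. ED50 from 3-4 groups of 6 mice; screening in groups of 4.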

[6] = tested on: male white Swiss mice (CD-1); test: Oxaliplatin-induced neuropathic pain, von Frey test; settings: baseline 2.62±0.06 g, after OXPT 1.78±0.04 g
Procedure: (§3) The tests were carried out using male white Swiss mice (CD-1) weighing 18-25 g. All procedures were carried out in accordance with Polish and international guidelines on ethics of animal testing, after obtaining appropriate institutional approval. The study group consisted of 8-10 animals. The tested and reference substances were administered intraperitoneally 30 minutes before given test as suspension in 1% aqueous solution of Tween. All tests/models were carried out based on the procedures described in the specialist literature: the formalin test (Beirith, A.; Santos, A. R.; Calixto, J. B.; Rodrigues, A. L.; Creczynski-Pasa, T. B. Eur. J. Pharmacol. 1998, 345, 233-245), the model of capsaicin-induced pain (Mogilski, S.; Kubacka, M.; Redzicka, A.; Kazek, G.; Dudek, M.; Malinka, W.; Filipek, B. Pharmacol. Biochem. Behav. 2015, 133, 99-110), the model of oxaliplatin-induced neuropathic pain—von Frey test (Sałat, K.; Cios, A.; Wyska, E.; Satat, R.; Mogilski, S.; Filipek, B.; Wigȩkowski, K.; Malawska, B. Pharmacol. Biochem. Behav. 2014, 122, 173-181).
Oxaliplatin (OXPT) was dissolved in a 5% glucose solution, followed by intraperitoneal administration to mice. A single dose of 10 mg/kg was used. Tactile and thermal (sensation of low temperature) allodynia associated with oxaliplatin-induced neuropathy are characterized by two phases. The early phase is acute and develops soon after administration of the OXPT, while the symptoms of the later (chronic) phase (associated with neurons damage), develops after a few days. Behavioral tests in mice with OXPT-induced neuropathy were carried out 7 days after its administration, i.e. in the late phase of neuropathy.
The influence of compounds tested on tactile allodynia was determined in the von Frey test. The animals were placed individually in cages with a reticulated bottom, 60 minutes before the beginning of the experiment, in order to adapt to the new environment. An electronic Von Frey apparatus (Electronic Von Frey, Bioseb, France) was used to assess the pain threshold for mechanical stimuli. The von Frey's fiber was applied to the underside of the right mouse paw with increasing pressure. […] The measurement was performed 3 times for each mouse, with at least 30 seconds between the measurements, then the results obtained were averaged. The entire study was performed 3 times: before OXPT administration to determine the baseline pain threshold; 7 days after administration of OXPT, and before administration of test compounds, to assess developing neuropathy by setting a new pain threshold; 30 minutes after administration of the compounds to determine their influence developed neuropathy.
Compound 6 was administered at doses of 10, 20 and 30 mg/kg.

[7] = tested on: male white Swiss mice (CD-1); test: Capsaicin-induced pain model; settings: 200 mg/kg i.p.
Procedure: as §3
This test assesses the time of licking and/or biting the hind paw into which mice were injected subplantarly with capsaicin in an amount of 1.6 μg, dissolved in 20 μl of a mixture containing 0.9% saline and ethanol (5% of the final volume). Observation was carried out […] after capsaicin administration. Test compounds were administered intraperitoneally 30 minutes before administration of capsaicin. Inhibition of nociceptive reaction—shortening the time of licking and biting the paw was the measure of antinociceptive activity of the compound tested.
Valproic acid (VPA) was the reference compound in this test. […] Compound 6 was administered at 20 mg/kg, 30 mg/kg and 40 mg/kg. Test compounds were administered as a suspension in 1.0% Tween 80 solution. The control group consisted of mice treated with vehicle alone (1% Tween 80 solution). The nociceptive reaction time in this group was 43.29±3.21 seconds.

[8] = tested on: male white Swiss mice (CD-1); test: Formalin test (analgesic activity)
Procedure: as §3
The pain was induced by the subplantar injection of 20 μL of 2.5% formalin solution into the mice right hind paw. The animals were placed in separate, transparent observation chambers for a period of 30 minutes. The measured value was the total licking and biting time of the paw to which the formalin solution was injected. The nociceptive reaction time was calculated for the first 5 minutes after formalin injection (first phase of the test—acute pain) and in the 15-20, 20-25 and 25-30 minutes time intervals after its administration (second phase of the test—inflammatory pain). The observed inhibition of nociceptive reaction—reduction of paw licking and biting time, was interpreted as the analgesic effect of the compound tested. Based on the results obtained, the ED50 dose was calculated (dose that reduces the nociceptive reaction time by 50%). […] Compound 6 was administered at doses of 10 mg/kg, 20 mg/kg and 30 mg/kg.

Compound	ED50 MES ([1]; i.p.)	MES: number of mice protected/number of mice tested ([1]; screening, 100 mg/kg i.p.)	TD50 [2]	ED50 6 Hz (32 mA) [3]	6 Hz (32 mA): number of mice protected/number of mice tested ([3]; screening, 100 mg/kg i.p.)	ED50 6 Hz (44 mA) ([4]; i.p.)	6 Hz (44 mA): number of mice protected/number of mice tested ([4]; screening, 100 mg/kg i.p.)	ED50 scPTZ ([5]; i.p.)	scPTZ: number of mice protected/number of mice tested ([5]; screening, 100 mg/kg i.p.)	pain threshold, von Frey test ([6]; 50 mg/kg i.p.)	pain threshold, von Frey test ([6]; 100 mg/kg i.p.)	pain threshold, von Frey test ([6]; 150 mg/kg i.p.)	analgesic activity, capsaicin test [7]	nociceptive reaction time, capsaicin test ([7]; control 43.29±3.21 seconds)	ED50 ([3]; Mus musculus, ip)	ED50 ([8]; Mus musculus, ip, phase II (inflammatory pain, 15-30 min), i.p., mice, read-out: ED50 in the second phase of the formalin test)	analgesic activity in the first phase of the formalin test ([8]; phase I, 100, 150 and 200 mg/kg i.p.)
O=C(C(c1ccccc1)N1C(=O)CCC1=O)N1CCN(c2cccc(SC(F)(F)F)c2)CC1 (stereo not drawn) [Compound 12]	36.2 mg/kg	4/4	150.0 mg/kg	15.8 mg/kg	4/4	57.9 mg/kg	¾	>100 mg/kg	4/4	–	–	–	–	–	–	–	–
CCCC(CCC)C(=O)O [VPA, valproic acid, reference compound]	–	–	–	130.6 mg/kg	–	–	–	–	–	2.75 ± 0.06 g	3.18 ± 0.14 g	3.97 ± 0.30 g	42.25%	25.00 ± 4.57 s	131 mg/kg	133 mg/kg	no analgesic activity
